Legend:
ZAP70 = biological target: T1, ZAP70 (Homo sapiens, UniProt P43403); assay: KinomeScan; type: binding; details: read-out: % Control
T1 construct: purchased DiscoveRx

MLK2 = biological target: T2, MLK2 (Homo sapiens, UniProt Q02779); assay: KinomeScan; type: binding; details: read-out: % Control
T2 construct: purchased DiscoveRx

D4 = biological target: T3, D4 (Homo sapiens, UniProt P21917); assay: GPCR Profiler; type: cell-based
T3 construct: host or cells: Chem-1 cells expressing Gα15

PAK3 = biological target: T4, PAK3 (Homo sapiens, UniProt O75914); assay: KinomeScan; type: binding; details: read-out: % Control
T4 construct: purchased DiscoveRx
T4 sequence (O75914 whole entry): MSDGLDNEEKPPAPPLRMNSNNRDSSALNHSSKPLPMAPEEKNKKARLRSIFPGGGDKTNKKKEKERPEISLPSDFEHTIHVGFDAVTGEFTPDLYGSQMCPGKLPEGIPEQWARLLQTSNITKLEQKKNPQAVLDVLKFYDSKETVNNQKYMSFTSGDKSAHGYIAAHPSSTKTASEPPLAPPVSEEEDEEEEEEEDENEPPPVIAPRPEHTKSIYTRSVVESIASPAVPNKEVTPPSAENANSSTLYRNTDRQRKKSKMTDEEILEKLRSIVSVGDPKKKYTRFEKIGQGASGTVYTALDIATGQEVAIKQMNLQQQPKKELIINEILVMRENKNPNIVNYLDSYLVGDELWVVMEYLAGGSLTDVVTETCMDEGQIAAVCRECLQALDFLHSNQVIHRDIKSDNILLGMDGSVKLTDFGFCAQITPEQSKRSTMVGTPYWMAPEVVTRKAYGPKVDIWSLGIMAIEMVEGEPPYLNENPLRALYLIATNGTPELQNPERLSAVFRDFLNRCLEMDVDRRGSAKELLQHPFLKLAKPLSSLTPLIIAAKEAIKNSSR

PIM2 = biological target: T5, PIM2 (Homo sapiens, UniProt Q9P1W9); assay: KinomeScan; type: binding; details: read-out: % Control
T5 construct: purchased DiscoveRx (Fremont, CA)
T5 sequence (Q9P1W9 whole entry): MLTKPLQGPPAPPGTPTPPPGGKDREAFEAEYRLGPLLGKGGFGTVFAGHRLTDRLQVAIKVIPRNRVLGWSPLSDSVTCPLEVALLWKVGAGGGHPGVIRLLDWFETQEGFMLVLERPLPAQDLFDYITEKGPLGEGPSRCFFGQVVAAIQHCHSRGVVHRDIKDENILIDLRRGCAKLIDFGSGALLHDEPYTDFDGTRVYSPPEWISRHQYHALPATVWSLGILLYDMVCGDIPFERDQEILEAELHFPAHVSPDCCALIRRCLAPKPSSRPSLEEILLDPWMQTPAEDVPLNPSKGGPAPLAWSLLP

[1] = biological target: T6, RPS6KA4(Kin.Dom.1-N-terminal) (Homo sapiens, UniProt O75676); assay: KinomeScan; type: binding; details: read-out: % Control
T6 construct: RPS6KA4(Kin.Dom.1-N-terminal); purchased DiscoveRx (Fremont, CA)

MTOR = biological target: T7, MTOR (Homo sapiens, UniProt P42345); assay: KinomeScan; type: binding; details: read-out: % Control
T7 construct: purchased DiscoveRx

Motilin = biological target: T8, Motilin (Homo sapiens, UniProt O43193); assay: GPCR Profiler; type: cell-based
T8 construct: host or cells: Chem-1 cells expressing Gα15
T8 sequence (O43193 whole entry): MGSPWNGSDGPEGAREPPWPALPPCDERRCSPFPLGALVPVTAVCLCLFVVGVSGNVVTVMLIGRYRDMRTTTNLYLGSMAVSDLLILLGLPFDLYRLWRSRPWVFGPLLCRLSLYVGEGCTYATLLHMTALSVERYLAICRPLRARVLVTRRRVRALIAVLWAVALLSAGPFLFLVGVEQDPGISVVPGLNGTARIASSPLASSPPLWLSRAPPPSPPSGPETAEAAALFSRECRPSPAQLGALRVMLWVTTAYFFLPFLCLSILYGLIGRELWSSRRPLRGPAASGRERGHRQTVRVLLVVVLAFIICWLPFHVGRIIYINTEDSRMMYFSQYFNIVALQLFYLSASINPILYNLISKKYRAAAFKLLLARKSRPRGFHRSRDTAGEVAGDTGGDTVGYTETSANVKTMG

RET(V804M) = biological target: T9, RET(V804M) (Homo sapiens, UniProt P07949, V804M); assay: KinomeScan; type: binding; details: read-out: % Control
T9 construct: purchased DiscoveRx (Fremont, CA)
T9 sequence (P07949 29-1114 V804M): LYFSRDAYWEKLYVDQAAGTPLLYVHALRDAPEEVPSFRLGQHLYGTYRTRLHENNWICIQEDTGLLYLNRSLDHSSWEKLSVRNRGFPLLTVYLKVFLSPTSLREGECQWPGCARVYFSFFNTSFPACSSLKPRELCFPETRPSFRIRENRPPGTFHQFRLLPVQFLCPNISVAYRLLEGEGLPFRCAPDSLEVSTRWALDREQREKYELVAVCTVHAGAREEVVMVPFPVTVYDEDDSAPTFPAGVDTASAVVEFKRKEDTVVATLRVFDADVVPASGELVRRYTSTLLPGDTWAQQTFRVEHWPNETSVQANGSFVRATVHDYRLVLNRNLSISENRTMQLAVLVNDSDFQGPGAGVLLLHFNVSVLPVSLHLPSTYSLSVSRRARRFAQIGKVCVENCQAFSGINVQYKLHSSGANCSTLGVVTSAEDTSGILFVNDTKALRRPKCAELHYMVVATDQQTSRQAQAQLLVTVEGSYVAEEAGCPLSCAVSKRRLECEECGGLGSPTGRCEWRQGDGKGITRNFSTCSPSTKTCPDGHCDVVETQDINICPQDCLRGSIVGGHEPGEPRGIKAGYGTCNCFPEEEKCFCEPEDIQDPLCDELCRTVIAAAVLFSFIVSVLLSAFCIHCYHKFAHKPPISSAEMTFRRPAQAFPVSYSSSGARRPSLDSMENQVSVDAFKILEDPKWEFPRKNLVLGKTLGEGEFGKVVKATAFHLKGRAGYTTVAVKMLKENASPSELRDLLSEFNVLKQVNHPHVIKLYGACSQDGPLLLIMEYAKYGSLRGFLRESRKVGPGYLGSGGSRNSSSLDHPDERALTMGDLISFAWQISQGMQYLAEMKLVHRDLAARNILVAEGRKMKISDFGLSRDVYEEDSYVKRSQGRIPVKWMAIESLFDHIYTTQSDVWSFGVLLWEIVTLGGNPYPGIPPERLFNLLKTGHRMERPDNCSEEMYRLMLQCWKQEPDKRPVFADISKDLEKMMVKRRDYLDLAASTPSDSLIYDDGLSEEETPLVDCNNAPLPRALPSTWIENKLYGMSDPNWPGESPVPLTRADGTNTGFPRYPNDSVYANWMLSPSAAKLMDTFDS

CAMK2D = biological target: T10, CAMK2D (Homo sapiens, UniProt Q13557); assay: KinomeScan; type: binding; details: read-out: % Control
T10 construct: purchased DiscoveRx (KinomeScan service)
T10 sequence (Q13557 whole entry): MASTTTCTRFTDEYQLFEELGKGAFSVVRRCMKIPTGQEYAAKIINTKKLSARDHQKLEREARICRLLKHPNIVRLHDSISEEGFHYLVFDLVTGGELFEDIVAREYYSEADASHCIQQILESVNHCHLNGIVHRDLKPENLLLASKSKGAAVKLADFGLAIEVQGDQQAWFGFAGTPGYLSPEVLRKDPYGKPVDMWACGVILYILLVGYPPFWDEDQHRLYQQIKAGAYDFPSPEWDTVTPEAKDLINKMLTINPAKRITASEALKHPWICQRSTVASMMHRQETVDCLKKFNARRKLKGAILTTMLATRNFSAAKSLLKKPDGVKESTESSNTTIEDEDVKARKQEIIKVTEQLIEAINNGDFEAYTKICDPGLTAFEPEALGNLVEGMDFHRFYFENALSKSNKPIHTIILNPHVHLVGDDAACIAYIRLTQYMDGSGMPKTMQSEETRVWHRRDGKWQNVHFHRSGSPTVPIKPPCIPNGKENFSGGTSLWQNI

YANK1 = biological target: T11, YANK1 (Homo sapiens, UniProt Q8WU08); assay: KinomeScan; type: binding; details: read-out: % Control
T11 construct: purchased DiscoveRx

[2] = biological target: T12, RSK1(Kin.Dom.2-C-terminal) (Homo sapiens, UniProt Q15418); assay: KinomeScan; type: binding; details: read-out: % Control
T12 construct: RSK1(Kin.Dom.2-C-terminal); purchased DiscoveRx (Fremont, CA)

VEGFR2 = biological target: T13, VEGFR2 (Homo sapiens, UniProt P35968); assay: KinomeScan; type: binding; details: read-out: % Control
T13 construct: purchased DiscoveRx

GPR41 = biological target: T14, GPR41 (Homo sapiens, UniProt O14843); assay: GPCR Profiler; type: cell-based
T14 construct: host or cells: Chem-1 cells with promiscuous Gα15
T14 sequence (O14843 whole entry, species assumed): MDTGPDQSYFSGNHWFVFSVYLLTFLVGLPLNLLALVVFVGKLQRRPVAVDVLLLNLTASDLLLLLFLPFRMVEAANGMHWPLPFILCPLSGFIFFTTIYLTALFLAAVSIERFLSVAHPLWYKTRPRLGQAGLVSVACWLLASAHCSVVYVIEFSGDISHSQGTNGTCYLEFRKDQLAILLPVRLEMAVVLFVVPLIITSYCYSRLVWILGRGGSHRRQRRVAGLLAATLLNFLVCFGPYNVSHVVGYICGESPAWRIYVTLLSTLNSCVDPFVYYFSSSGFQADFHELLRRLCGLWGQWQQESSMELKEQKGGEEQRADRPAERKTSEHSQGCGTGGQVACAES

BLK = biological target: T15, BLK (Homo sapiens, UniProt P51451); assay: KinomeScan; type: binding; details: read-out: % Control
T15 construct: purchased DiscoveRx (Fremont, CA)

MAPKAPK2 = biological target: T16, MAPKAPK2 (Homo sapiens, UniProt P49137); assay: KinomeScan; type: binding; details: read-out: % Control
T16 construct: purchased DiscoveRx (Fremont, CA)

MCHR2 = biological target: T17, MCHR2 (Homo sapiens, UniProt Q969V1); assay: GPCR Profiler; type: cell-based
T17 construct: host or cells: Chem-1 cells expressing Gα15
T17 sequence (Q969V1 whole entry, species assumed): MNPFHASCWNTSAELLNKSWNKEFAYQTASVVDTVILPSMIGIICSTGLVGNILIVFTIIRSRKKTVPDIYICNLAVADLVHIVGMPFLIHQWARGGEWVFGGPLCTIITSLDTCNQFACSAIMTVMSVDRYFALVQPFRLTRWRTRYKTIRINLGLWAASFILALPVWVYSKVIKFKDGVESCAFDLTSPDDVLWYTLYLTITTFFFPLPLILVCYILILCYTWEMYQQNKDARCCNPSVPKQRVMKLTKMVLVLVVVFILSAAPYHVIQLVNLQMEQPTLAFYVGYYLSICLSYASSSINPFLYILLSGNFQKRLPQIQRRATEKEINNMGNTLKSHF

HEK293 = assay: Liperfluo lipid peroxidation, HEK293; type: cell-based, human
Method: Cells were plated on a 100 mm cell culture dish (CELLTREAT Scientific Products) in 10 mls of DMEM with high glucose, GlutaMAX, HEPES, Penicillin-Streptomycin (ThermoFisher™) and 10% FBS. Cells were incubated overnight at 37° C. in 5% CO2. Media were then replaced with […] fresh media with DMSO, OGM2, or Erastin (APExBIO Technology™) and the cells incubated for 3 days. On the third day, 3 mL fresh media with 2.5 μM Liperfluo™ (Dojindo Molecular Technologies™, Inc.) resuspended in DMSO was added and cells were incubated at 37° C. in 5% CO2 for 1 hour. Cells were subsequently trypsinized for 5 minutes, pelleted by centrifugation, and resuspended in cell sorting media (1% BSA and 1 mM EDTA in PBS pH 7.4). Ten thousand events were recorded on a BD LSR II and the data processed using the FlowJo™ software.

Hep G2 = assay: Cell Titer-Glo viability, Hepatocellular cancer; type: cell-based
Method: OGM2 kills wide variety of cancer cell types. Cell sensitivity can be classified in to Very Sensitive (LC50<2 μM), Sensitive (LC50=2 to 10 μM), Mildly Sensitive (LC50>10 μM), and Refractory (no killing at 10 μM). The listed established cell were incubated with OGM2 at 2 μM or 10 μM for 72 hours under standard cell culture conditions, and relative cell number was assessed using Cell Titer-Glo Luminescent Cell Viability Assay (Promega™) following the manufacturer's instructions. Luminescence was determined using a Cytation 5 reader and Gen5 software package (BioTek™).
Cancer cells, which are very sensitive to killing by OGM2 (LCs <2 μM), with reported mRNA expression of GPR68 and the related proton sensing receptor GPR4. LC50's (concentrations causing 50% lethality) were determined using CellTiter-Glo (Promega™, G7570). Cells were plated in 12-well plates (CELLTREAT Scientific Products, 229112) in 1 ml of DMEM with high glucose, GlutaMAX, HEPES, or RPMI 1640 with Penicillin-Streptomycin (ThermoFisher™, 10564029, 11875119 and 15140122) and 10% FBS. Cells were incubated overnight at 37° C. in 5% CO2. Then 1 mL of fresh media was added with DMSO, OGM, or positive control (Erastin; APExBIO Technology, LLC, B1524) and cells incubated for 3 days. On the third day, all media was removed, cells were rinsed with 1×PBS, PBS was removed, and 200 μL of 1× Passive Lysis Buffer (Promega™, E1941) was added to each well. […]. Subsequently, 20 μL of lysate was added to 100 μL CellTiter-Glo™ reagent on a LUMITRAC 200 plate (Greiner™ bio-one, 82050-726). Plates were briefly spun down and read on a GloMax-Multi Detection System (Promega™).
The cells listed in the tables above were incubated with OGM2 at 2 μM or 10 μM for 72 hours under standard cell culture conditions, and relative cell number was assessed using Cell Titer-Glo Luminescent Cell Viability Assay (Promega™) following the manufacturer's instructions. Luminescence was determined using a Cytation 5 reader and Gen5 software package (BioTek™). RNA expression of GPR68 and GPR4 in the corresponding cancer cell lines are listed, according to the publicly available The Human Protein Atlas version 22.0 and Ensembl version 103.38 (see proteinatlas.org). The consensus normalized expression value (“nTPM”=normalize transcript per million) was calculated as the maximum nTPM value for each gene in the two data sources.

T3 sequence (P21917 whole entry): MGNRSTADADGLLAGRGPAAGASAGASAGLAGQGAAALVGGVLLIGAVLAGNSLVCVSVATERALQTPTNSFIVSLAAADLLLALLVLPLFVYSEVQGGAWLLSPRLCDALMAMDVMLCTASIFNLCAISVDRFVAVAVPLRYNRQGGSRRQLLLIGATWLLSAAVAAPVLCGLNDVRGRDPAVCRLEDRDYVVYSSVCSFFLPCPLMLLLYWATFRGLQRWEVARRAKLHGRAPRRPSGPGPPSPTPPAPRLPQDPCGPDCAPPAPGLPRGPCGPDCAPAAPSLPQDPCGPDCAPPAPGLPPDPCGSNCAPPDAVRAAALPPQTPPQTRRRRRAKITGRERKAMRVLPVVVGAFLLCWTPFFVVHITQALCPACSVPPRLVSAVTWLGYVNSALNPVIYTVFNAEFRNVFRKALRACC
T2 sequence (Q02779 whole entry): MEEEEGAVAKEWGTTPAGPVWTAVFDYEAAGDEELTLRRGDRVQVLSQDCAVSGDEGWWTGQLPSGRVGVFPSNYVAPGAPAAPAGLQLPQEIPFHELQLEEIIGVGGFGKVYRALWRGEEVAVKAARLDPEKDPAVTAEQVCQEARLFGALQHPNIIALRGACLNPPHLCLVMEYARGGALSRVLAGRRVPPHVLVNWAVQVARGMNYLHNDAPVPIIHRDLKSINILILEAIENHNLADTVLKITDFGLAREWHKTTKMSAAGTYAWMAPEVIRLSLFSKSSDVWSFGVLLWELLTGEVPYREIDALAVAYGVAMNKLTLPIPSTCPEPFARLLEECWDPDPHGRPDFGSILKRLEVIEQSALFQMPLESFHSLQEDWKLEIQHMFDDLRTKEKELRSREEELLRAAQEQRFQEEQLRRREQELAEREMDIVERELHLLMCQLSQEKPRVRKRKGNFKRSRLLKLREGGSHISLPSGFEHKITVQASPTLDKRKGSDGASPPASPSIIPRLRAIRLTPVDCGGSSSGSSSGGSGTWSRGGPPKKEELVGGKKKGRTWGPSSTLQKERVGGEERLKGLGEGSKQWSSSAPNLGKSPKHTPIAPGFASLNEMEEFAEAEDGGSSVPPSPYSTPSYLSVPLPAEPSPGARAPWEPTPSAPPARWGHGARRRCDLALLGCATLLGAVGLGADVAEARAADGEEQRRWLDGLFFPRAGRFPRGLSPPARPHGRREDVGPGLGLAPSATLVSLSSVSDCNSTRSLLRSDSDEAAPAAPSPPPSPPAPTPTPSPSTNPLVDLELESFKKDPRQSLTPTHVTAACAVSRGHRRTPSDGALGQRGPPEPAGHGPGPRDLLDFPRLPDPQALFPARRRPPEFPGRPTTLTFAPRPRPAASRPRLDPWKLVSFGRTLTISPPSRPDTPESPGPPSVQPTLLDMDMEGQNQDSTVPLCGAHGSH

CCc1ccc2c(c1)C1(NN=C(c3cccc4ccccc34)S1)C(=O)N2 (centres unmarked) [OGM1, 5-ethyl-5′-naphthalen-1-ylspiro[1H-indole-3,2′-3H-1,3,4-thiadiazole]-2-one]
remaining binding at 10 µM (ZAP70): 73%
remaining binding at 10 µM (MLK2): 100%
Antagonism (D4; 10 uM): −16.3
Agonism (D4; 12.5 uM): 0.6
remaining binding at 10 µM (PAK3): 93%
remaining binding at 10 µM (PIM2): 84%
remaining binding at 10 µM [1]: 92%
remaining binding at 10 µM (MTOR): 86%
Antagonism (Motilin; 10 uM): −0.7
Agonism (Motilin; 12.5 uM): 1
remaining binding at 10 µM (RET(V804M)): 100%
remaining binding at 10 µM (CAMK2D): 91%
remaining binding at 10 µM (YANK1): 100%
remaining binding at 10 µM [2]: 73%
remaining binding at 10 µM (VEGFR2): 100%
Antagonism (GPR41; 10 uM): 1.9
Agonism (GPR41; 12.5 uM): 0.4
remaining binding at 10 µM (BLK): 97%
remaining binding at 10 µM (MAPKAPK2): 100%
Antagonism (MCHR2; 10 uM): −8.2
Agonism (MCHR2; 12.5 uM): 0.3

CCc1ccc2c(c1)C1(NN=C(c3ccccc3)S1)C(=O)N2 (centres unmarked) [OGM2]
lipid peroxidation (HEK293): did not induce lipid peroxidation
Class (Hep G2): Sensitive (Sensitive (LC50=2 to 10 μM))
% Survival 2 μM OGM (Hep G2; 72 hours): 66.8%
% Survival 10 μM OGM (Hep G2; 72 hours): 45.7%
CC50 (Hep G2; Homo sapiens, HepG2, 72 hours, read-out: LC50 (the source's name)): 2 to 10 µM

From patent publication US20240327364A1, “THERAPEUTIC TARGETING OF GPR68 TO INDUCE FERROPTOSIS” (University Of Maryland, Baltimore, priority 2023, published 2024)
